Experimental data: ChEMBL document CHEMBL1123274, “Azasteroids: structure-activity relationships for inhibition of 5 alpha-reductase and of androgen receptor binding” (J Med Chem, 1986)
pIC50: −log10 of the molar value.

Tests used:
Androgen receptor = target: T1, Androgen receptor (Rattus norvegicus, UniProt P15207); experiment: In vitro antagonist activity against rat prostatic androgen receptor (AR)
T1 sequence (P15207 whole entry): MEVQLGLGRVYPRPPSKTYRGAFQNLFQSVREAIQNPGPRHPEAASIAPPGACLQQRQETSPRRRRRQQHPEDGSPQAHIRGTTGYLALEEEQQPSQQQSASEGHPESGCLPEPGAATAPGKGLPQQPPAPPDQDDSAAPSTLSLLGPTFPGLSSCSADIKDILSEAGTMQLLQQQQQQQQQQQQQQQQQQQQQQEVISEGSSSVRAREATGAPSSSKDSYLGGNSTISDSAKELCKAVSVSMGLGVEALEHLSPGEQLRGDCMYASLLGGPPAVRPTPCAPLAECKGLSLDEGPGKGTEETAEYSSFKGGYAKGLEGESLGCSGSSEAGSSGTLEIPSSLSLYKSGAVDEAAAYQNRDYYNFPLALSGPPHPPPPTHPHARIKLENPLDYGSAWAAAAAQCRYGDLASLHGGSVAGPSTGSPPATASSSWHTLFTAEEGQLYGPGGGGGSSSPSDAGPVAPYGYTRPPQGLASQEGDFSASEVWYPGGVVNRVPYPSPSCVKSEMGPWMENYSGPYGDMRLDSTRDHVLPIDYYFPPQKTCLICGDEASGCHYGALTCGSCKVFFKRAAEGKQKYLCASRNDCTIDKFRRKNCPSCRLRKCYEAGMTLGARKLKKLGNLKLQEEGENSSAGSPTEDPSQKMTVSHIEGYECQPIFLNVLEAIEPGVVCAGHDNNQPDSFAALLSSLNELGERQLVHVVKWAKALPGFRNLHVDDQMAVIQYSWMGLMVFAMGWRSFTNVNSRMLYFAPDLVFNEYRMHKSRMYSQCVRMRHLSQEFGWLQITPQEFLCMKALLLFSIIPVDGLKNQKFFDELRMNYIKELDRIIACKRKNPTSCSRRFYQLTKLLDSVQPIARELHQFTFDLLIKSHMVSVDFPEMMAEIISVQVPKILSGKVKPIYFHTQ

[1] = target: T2, Steroid 5-alpha-reductase (Rattus norvegicus, UniProt P24008+P31214); experiment: In vitro inhibitory activity against rat prostatic steroid 5-alpha-reductase; assay type: protein assay
T2 sequence (P24008 whole entry): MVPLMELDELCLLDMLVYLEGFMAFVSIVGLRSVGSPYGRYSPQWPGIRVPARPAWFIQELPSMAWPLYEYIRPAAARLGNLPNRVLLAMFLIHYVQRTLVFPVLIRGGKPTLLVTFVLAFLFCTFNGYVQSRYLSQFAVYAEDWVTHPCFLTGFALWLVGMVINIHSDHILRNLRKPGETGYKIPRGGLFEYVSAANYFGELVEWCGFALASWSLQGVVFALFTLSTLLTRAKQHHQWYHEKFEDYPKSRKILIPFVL
T2 sequence (P31214 whole entry): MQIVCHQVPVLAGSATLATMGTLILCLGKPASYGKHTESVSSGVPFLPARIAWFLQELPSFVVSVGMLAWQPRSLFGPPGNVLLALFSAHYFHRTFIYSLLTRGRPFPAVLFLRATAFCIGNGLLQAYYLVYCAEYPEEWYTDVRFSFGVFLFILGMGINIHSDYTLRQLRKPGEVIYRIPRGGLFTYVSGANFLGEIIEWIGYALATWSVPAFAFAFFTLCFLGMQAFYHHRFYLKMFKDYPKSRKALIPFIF

SMILES | pIC50 (Androgen receptor) | IC50 [1] [µM] | Ki app [1] [µM]
CC(CO)[C@H]1CC[C@H]2[C@@H]3CCC4N(C)C(=O)CC[C@]4(C)[C@H]3CC[C@]12C (some centres not stated) | 6.07 | 0.0038 | 
CCN(CC)C(=O)[C@H]1CC[C@H]2[C@@H]3CC[C@H]4N(C)C(=O)[C@@H]5C[C@@H]5[C@]4(C)[C@H]3CC[C@]12C | 5.57 | 0.02 | 
CCN(CC)C(=O)[C@H]1CC[C@H]2[C@@H]3CC[C@H]4N(C)C(=O)[C@@H](F)C[C@]4(C)[C@H]3CC[C@]12C | 5.74 |  | 
CCOC(=O)C[C@H]1CC[C@H]2[C@@H]3CC[C@H]4N(C)C(=O)CC[C@]4(C)[C@H]3CC[C@]12C | 7.18 | 0.0068 | 
CN1C(=O)CC[C@@]2(C)C1CC[C@H]1[C@@H]3CC[C@H](C(=O)[O-])[C@@]3(C)CC[C@@H]12.[Na+] (some centres not stated) | 5.04 | 0.037 | 
CCC(C)C(=O)[C@H]1CC[C@H]2[C@@H]3CCC4NC(=O)CC[C@]4(C)[C@H]3CC[C@]12C (some centres not stated) | < 4.00 | 0.0012 | 
CC(C(=O)[O-])[C@H]1CC[C@H]2[C@@H]3CC=C4N(C)C(=O)CC[C@]4(C)[C@H]3CC[C@]12C.[Na+] (some centres not stated) | 4.60 | 0.013 | 
CN1C(=O)C=C[C@@]2(C)C1CC[C@@H]1[C@@H]2CC[C@@]2(C)[C@H]1CC[C@@]21CCCO1 (some centres not stated) | 6.96 | 0.43 | 
COC(=O)C(C)[C@H]1CC[C@H]2[C@@H]3CCC4NC(=O)C=C[C@]4(C)[C@H]3CC[C@]12C (some centres not stated) | < 4.00 |  | 
CN1C(=O)CC[C@@]2(C)C1CC[C@H]1[C@@H]3CC[C@H](C(=O)NCCO)[C@@]3(C)CC[C@@H]12 (some centres not stated) | 5.77 | 0.093 | 
CCN(CC)C(=O)[C@H]1CC[C@H]2[C@@H]3CC[C@H]4N(C)C(=O)C(=O)C[C@]4(C)[C@H]3CC[C@]12C | 4.30 | 0.34 | 
COC(=O)C(C)[C@H]1CC[C@H]2[C@@H]3CCC4N(C)C(=O)C=C[C@]4(C)[C@H]3CC[C@]12C (some centres not stated) | 6.57 |  | 
CN1C(=O)C=C[C@@]2(C)C1CC[C@H]1[C@@H]3CC[C@H](C(=O)Sc4ccccn4)[C@@]3(C)CC[C@@H]12 (some centres not stated) | 7.00 |  | 
CN1C(=O)CC[C@@]2(C)C1CC[C@H]1[C@@H]3CC[C@H](C(=O)NC(C)(C)CO)[C@@]3(C)CC[C@@H]12 (some centres not stated) | 6.03 |  | 
CN1C(=O)CC[C@@]2(C)C1CC[C@H]1[C@@H]3CC[C@H](C(N)=O)[C@@]3(C)CC[C@@H]12 (some centres not stated) | 6.36 | 0.017 | 
CCCCCCCCNC(=O)[C@H]1CC[C@H]2[C@@H]3CCC4N(C)C(=O)CC[C@]4(C)[C@H]3CC[C@]12C (some centres not stated) | 6.89 | 0.00021 | 
CCN(CC)C(=O)[C@H]1CC[C@H]2[C@@H]3CC[C@H]4N(C)C(=O)CCC[C@]4(C)[C@H]3CC[C@]12C | 6.22 |  | 
COC(=O)[C@H]1CC[C@H]2[C@@H]3CCC4NC(=O)CC[C@]4(C)[C@H]3CC[C@]12C (some centres not stated) |  |  | 0.133
CCCCCCCCNC(=O)[C@H]1CC[C@H]2[C@@H]3CCC4NC(=O)CC[C@]4(C)[C@H]3CC[C@]12C (some centres not stated) | 5.28 | 0.00013 | 
CCN(CC)C(=O)[C@H]1CC[C@H]2[C@@H]3CC[C@H]4N(C)C(=O)[C@H](O)C[C@]4(C)[C@H]3CC[C@]12C | 5.49 | 0.46 | 
CC(C(=O)O)[C@H]1CC[C@H]2[C@@H]3CCC4NC(=O)CC[C@]4(C)[C@H]3CC[C@]12C (some centres not stated) | < 4.00 |  | 
C[C@]12CC[C@H]3[C@@H](CCC4NC(=O)CC[C@@]43C)[C@@H]1CC[C@@H]2C(=O)[O-].[K+] (some centres not stated) | < 4.00 | 0.025 | 
CCN(CC)C(=O)[C@H]1CC[C@H]2[C@@H]3CC[C@H]4N(CC)C(=O)CC[C@]4(C)[C@H]3CC[C@]12C | 4.49 |  | 
C[C@]12C=CC(=O)NC1CC[C@@H]1[C@@H]2CC[C@@]2(C)[C@H]1CC[C@@]21CCCO1 (some centres not stated) | 5.82 | 0.43 | 

SMILES | pIC50 (Androgen receptor) | IC50 [1] [µM] | Ki app [1] [µM]
CC(C)CC(=O)[C@H]1CC[C@H]2[C@@H]3CCC4NC(=O)CC[C@]4(C)[C@H]3CC[C@]12C (some centres not stated) | < 4.00 |  | 
CCCCCCCCN(CCCCCCCC)C(=O)[C@H]1CC[C@H]2[C@@H]3CCC4N(C)C(=O)CC[C@]4(C)[C@H]3CC[C@]12C (some centres not stated) | 4.34 | 0.033 | 
CC(=O)[C@H]1[C@@H](C)C[C@H]2[C@@H]3CCC4N(C)C(=O)CC[C@]4(C)[C@H]3CC[C@@]21C (some centres not stated) | 5.07 | 0.016 | 
CCC(C)C(=O)[C@H]1CC[C@H]2[C@@H]3CCC4N(C)C(=O)CC[C@]4(C)[C@H]3CC[C@]12C (some centres not stated) | 6.38 | 0.0019 | 
CN1C(=O)C=C[C@@]2(C)C1CC[C@H]1[C@@H]3CC[C@H](C(=O)c4ccc[nH]4)[C@@]3(C)CC[C@@H]12 (some centres not stated) | 7.82 |  | 
CCC(C)C(=O)[C@H]1CC[C@H]2[C@@H]3CCC4N(C)C(=O)C=C[C@]4(C)[C@H]3CC[C@]12C (some centres not stated) | 7.19 | 0.12 | 
CCC(C)C(=O)[C@H]1CC[C@H]2[C@@H]3CCC4NC(=O)C=C[C@]4(C)[C@H]3CC[C@]12C (some centres not stated) | < 4.00 | 0.05 | 
CCN(CC)C(=O)[C@H]1CC[C@H]2[C@@H]3CCC4N(C)C(=O)C=C(C#N)[C@]4(C)[C@H]3CC[C@]12C (some centres not stated) | < 5.00 | > 1 | 
CO[C@H]1CC(=O)NC2CC[C@H]3[C@@H]4CC[C@H](C(N)=O)[C@@]4(C)CC[C@@H]3[C@]21C (some centres not stated) | < 4.00 |  | 
COC(CNC(=O)[C@H]1CC[C@H]2[C@@H]3CCC4N(C)C(=O)CC[C@]4(C)[C@H]3CC[C@]12C)OC (some centres not stated) | 6.10 | 0.0046 | 
CCN(CC)C(=O)[C@H]1CCC[C@H]2[C@@H]3CC[C@H]4N(C)C(=O)NC[C@]4(C)[C@H]3CC[C@]12C | 5.80 | 0.5 | 
CN1C(=O)CC[C@@]2(C)C1CC[C@H]1[C@@H]3CC[C@H](C(=O)NC(C)(C)C)[C@@]3(C)CC[C@@H]12 (some centres not stated) | 6.17 | 0.00056 | 
CCN(CC)C(=O)/C=C1\CC[C@H]2[C@@H]3CCC4N(C)C(=O)CC[C@]4(C)[C@H]3CC[C@]12C (some centres not stated) | 6.03 | 0.0025 | 
C[C@]12CCC(=O)NC1CC[C@@H]1[C@@H]2CC[C@@]2(C)[C@H]1CC[C@@]21CCCO1 (some centres not stated) | 5.60 | 0.093 | 
CC(=O)N[C@@H]1CC[C@H]2[C@@H]3CCC4N(C)C(=O)CC[C@]4(C)[C@H]3CC[C@]12C (some centres not stated) | 4.40 | 0.058 | 
CC(C)N(C(=O)[C@H]1CC[C@H]2[C@@H]3CC=C4NC(=O)CC[C@]4(C)[C@H]3CC[C@]12C)C(C)C | 4.85 | 0.086 | 
CC(C)N(C(=O)[C@H]1CC[C@H]2[C@@H]3CC=C4N(C)C(=O)CC[C@]4(C)[C@H]3CC[C@]12C)C(C)C | 5.00 |  | 
CNC(=O)[C@H]1CC[C@H]2[C@@H]3CC=C4N(C)C(=O)CC[C@]4(C)[C@H]3CC[C@]12C | 6.40 | 0.14 | 
CCNC(=O)[C@H]1CC[C@H]2[C@@H]3CC[C@H]4N(C)C(=O)C=C[C@]4(C)[C@H]3CC[C@]12C | 7.08 |  | 
CCN(CC)C(=O)[C@H]1CC[C@H]2[C@@H]3CC[C@H]4NC(=O)C=C[C@]4(C)[C@H]3CC[C@]12C | < 4.00 | 0.14 | 
CN1C(=O)CC[C@H]2C1=CC[C@@H]1[C@@H]2CC[C@@]2(C)[C@H]1CC[C@@]21CCCO1 (stereo in doubt; 74) | 6.62 |  | 
CN1C(=O)CC[C@H]2C1=CC[C@@H]1[C@@H]2CC[C@@]2(C)[C@H]1CC[C@@]21CCCO1 (stereo in doubt; 75) | 6.82 |  | 
CC(C)(C)NC(=O)[C@H]1CC[C@H]2[C@@H]3CC[C@H]4NC(=O)C=C[C@]4(C)[C@H]3CC[C@]12C [FINASTERIDE] |  | 0.0068 | 
